From US7256186B2, “Gamma secretase inhibitors” (Schering Corporation, priority 2002, dated 2007)
Like-named read-outs stand apart in the source and are kept apart here.

Target: T1, Gamma secretase (Homo sapiens, UniProt P49768)
T1 construct: endogenous in cells; host or cells: Salt-washed membranes of 293 T-REx cells, clone pTRE.15; Only the substrate SPC99-Lon is transfected (pcDNA4/TO, tetracycline-induced)
Test: Gamma secretase activity assay on membranes of 293 cells expressing SPC99-Lon (Aβ 40 / Aβ 42 measured by ECL immunoassay)
Type: biochemical
Details: membrane γ-secretase assay
Description: Upon insertion into the membrane, the 17 amino acid signal peptide is processed, leaving an additional leucine at the N-terminus of Aβ. SPC99-lon was cloned into the pcDNA4/TO vector (Invitrogen) and transfected into 293 cells stably transfected with pcDNA6/TR, which is provided in the T-REx system (Invitrogen). The transfected cells were selected in Dulbecco's modified Eagle's media (DMEM) supplemented with 10% fetal bovine serum, 100 units/mL penicillin, 100 µg/mL streptomycin, 250 µg/mL zeocin, and 5 µg/mL blasticidin (Invitrogen). Colonies were screened for Aδ production by inducing C99 expression with 0.1 g/mL tetracycline for 16–20 h and analyzing conditioned media with a sandwich immunoassay (see below). One of the clones, designated as pTRE.15, was used in these studies.
C99 expression in cells was induced with […] tetracycline for 20 h. The cells were pretreated with […] 12-myristate 13-acetate (PMA) and […] A (BFA) for 5–6 h at 37 C before harvesting. The cells were washed 3 times with cold phosphate-buffered saline (PBS) and harvested in buffer A containing 20 mM Hepes (pH 7.5), 250 mM sucrose, 50 mM KCl, 2 mM EDTA, 2 mM EGTA, and Complete protease inhibitor tablets (Roche Molecular Biochemicals). The cell pellets were flash-frozen in liquid nitrogen and stored at −70 C before use.
To make membranes, the cells were resuspended in buffer A and lysed in a nitrogen bomb at 600 psi. The cell lysate was centrifuged at 1500 g for 10 min to remove nuclei and large cell debris. The supernatant was centrifuged at 100000 g for 1 h. The membrane pellet was resuspended in buffer A plus 0.5 M NaCl, and the membranes were collected by centrifugation at 200000 g for 1 h. The salt-washed membrane pellet was washed again in buffer A and centrifuged at 100000 g for 1 h. The final membrane pellet was resuspended in a small volume of buffer A using a Teflon-glass homogenizer. The protein concentration was determined, and membrane aliquots were flash-frozen in liquid nitrogen and stored at −70 C. γ-Secretase Reaction and Aβ Analysis
To measure γ-secretase activity, membranes were incubated at 37 C for 1 h in 50 L of buffer containing 20 mM Hepes (pH 7.0) and 2 mM EDTA. At the end of the incubation, Aβ 40 and Aβ 42 were measured using an electrochemiluminescence (ECL)-based immunoassay. Aβ 40 was identified with antibody pairs TAG-G2–10 and biotin-W02, while Aβ 42 was identified with TAG-G2–11 and biotin-4G8. The ECL signal was measured using an ECL-M8 instrument (IGEN International, Inc.) according to the manufacturer's instructions. The data presented were the means of the duplicate or triplicate measurements in each experiment.

[1] = 37 C, 1 h, read-out: IC50 (μM), γ-secretase inhibitory activity
[2] = range stated for a group of examples, read-out: IC50 within the range stated, gamma secretase assay

With `O=C(OC[C@H]1CCC[C@@H](c2cc(F)cc(F)c2)N1S(=O)(=O)c1ccc(Cl)cc1)N1CCC(N2CCCCC2)CC1` [Example 67-AT] as the compound, how does the IC50 [1] read?
Its IC50 is 0.0038 µM.

`CC1(N2CCCCC2)CCN(C(=O)OC[C@H]2CCC[C@@H](c3cccc(F)c3)N2S(=O)(=O)c2ccc(Cl)cc2)CC1` [Example 67-BA] was tested. Which IC50 [2] did it give?
The IC50 was 0.0002 to 0.015 µM.

With `O=C(OC[C@H]1CCC[C@@H](c2ccc(F)c(F)c2)N1S(=O)(=O)c1ccc(Cl)cc1)N1CCC(N2CCCCC2)CC1` [Example 67-BD] as the compound, how does the IC50 [2] read?
Its IC50 is 0.0002 to 0.015 µM.

For `Cc1cc([C@@H]2CCC[C@H](COC(=O)N3CCC(N4CCCCC4)CC3)N2S(=O)(=O)c2ccc(Cl)cc2)ccc1F` [Example 67-BE], which IC50 [2] is on record?
Its IC50 is 0.0002 to 0.015 µM.

For `O=C(OC[C@H]1CCC[C@@H](c2cc(F)cc(F)c2)N1S(=O)(=O)c1ccc(Cl)cc1)N1CCC(N2CCCCC2)CC1` [Example 67-BG], which IC50 [1] is on record?
The IC50 was 0.0023 µM.

What about the IC50 [2] of the same compound?
Its IC50 is 0.0002 to 0.015 µM.

For `NC(=O)C1(N2CCCCC2)CCN(C(=O)OC[C@H]2CCC[C@@H](c3cc(F)cc(F)c3)N2S(=O)(=O)c2ccc(Cl)cc2)CC1` [Example 67-BH], which IC50 [2] is on record?
The IC50 was 0.0002 to 0.015 µM.

With `O=C(OC[C@H]1CCC[C@@H](c2cc(F)ccc2F)N1S(=O)(=O)c1ccc(Cl)cc1)N1CCC(N2CCCCC2)CC1` [Example 67-BL] as the compound, how does the IC50 [2] read?
Its IC50 is 0.0002 to 0.015 µM.

`O=C(OC[C@H]1CCC[C@@H](c2cccc(F)c2)N1S(=O)(=O)c1ccc(Cl)cc1)N1CCC(N2CCCCC2)CC1` [Example 67-B] was tested. Which IC50 [1] did it give?
The IC50 was 0.0027 µM.

What about the IC50 [2] of the same compound?
Its IC50 is 0.0002 to 0.015 µM.

With `O=C(OC[C@H]1CCC[C@@H](c2ccccc2F)N1S(=O)(=O)c1ccc(Cl)cc1)N1CCC(N2CCCCC2)CC1` [Example 67-E] as the compound, how does the IC50 [2] read?
Its IC50 is 0.0002 to 0.015 µM.

Which IC50 [2] does the source give for `O=C(OC[C@H]1CCC[C@@H](c2cccc(F)c2)N1S(=O)(=O)c1ccc(Cl)cc1)N1CCC(N2CCC(F)(F)CC2)CC1` [Example 67-N] here?
Its IC50 is 0.0002 to 0.015 µM.

For `C=C1CCN(C2CCN(C(=O)OC[C@H]3CCC[C@@H](c4cccc(F)c4)N3S(=O)(=O)c3ccc(Cl)cc3)CC2)CC1` [Example 67-P], which IC50 [2] is on record?
Its IC50 is 0.0002 to 0.015 µM.

Which IC50 [2] does the source give for `O=C(OC[C@H]1CCC[C@@H](c2cccc(F)c2)N1S(=O)(=O)c1ccc(F)cc1)N1CCC(N2CCCCC2)CC1` [Example 67-U] here?
Its IC50 is 0.0002 to 0.015 µM.

How did the IC50 [2] turn out when `O=C(OC[C@@H]1CCC[C@H](C2CC2)N1S(=O)(=O)c1ccc(Cl)cc1)N1CCN(C2CCCCC2)CC1` [Example 160-B] was run?
Its IC50 is 0.0002 to 0.015 µM.

How did the IC50 [2] turn out when `CC1CC(N2CCCCC2)CCN1C(=O)OC[C@@H]1CCC[C@H](C2CC2)N1S(=O)(=O)c1ccc(Cl)cc1` (some centres unmarked) [Example 160-K] was run?
Its IC50 is 0.0002 to 0.015 µM.

What does the source list for `O=C(OC1([C@H]2CCC[C@@H](C3CC3)N2S(=O)(=O)c2ccc(Cl)cc2)CC1)N1CCC(N2CCCCC2)CC1` [Example 161-A]?
IC50 [1]: 0.0028 µM; IC50 [2]: 0.0002 to 0.015 µM

`CC(C)N1CCN(C(=O)OC2([C@H]3CCC[C@@H](C4CC4)N3S(=O)(=O)c3ccc(Cl)cc3)CC2)CC1` [Example 161-E] was tested. Which IC50 [2] did it give?
Its IC50 is 0.0002 to 0.015 µM.

With `O=C(OC1([C@H]2CCC[C@@H](C3CC3)N2S(=O)(=O)c2ccc(Cl)cc2)CC1)N1CCN(CC2CC2)CC1` [Example 161-F] as the compound, how does the IC50 [2] read?
The IC50 was 0.0002 to 0.015 µM.

How did the IC50 [1] turn out when `O=C(OC1(C2CCCC(c3cccc(F)c3)N2S(=O)(=O)c2ccc(Cl)cc2)CC1)N1CCC(N2CCCCC2)CC1` (centres unmarked) [Example 173-A] was run?
Its IC50 is 0.0007 µM.

And the IC50 [2]?
Its IC50 is 0.0002 to 0.015 µM.

`O=C(OC1(C2CCCC(c3cccc(F)c3)N2S(=O)(=O)c2ccc(Cl)cc2)CC1)N1CCN(C2CCCCC2)CC1` (centres unmarked) [Example 173-B] was tested. Which IC50 [2] did it give?
Its IC50 is 0.0002 to 0.015 µM.

For `O=C(OC1(C2CCCC(c3cccc(F)c3)N2S(=O)(=O)c2ccc(Cl)cc2)CC1)N1CCN(CCO)CC1` (centres unmarked) [Example 173-C], which IC50 [1] is on record?
The IC50 was 0.0018 µM.

What about the IC50 [2] of the same compound?
Its IC50 is 0.0002 to 0.015 µM.

For `NC(=O)C1(N2CCCCC2)CCN(C(=O)OC2(C3CCCC(c4cccc(F)c4)N3S(=O)(=O)c3ccc(Cl)cc3)CC2)CC1` (centres unmarked) [Example 173-E], which IC50 [1] is on record?
The IC50 was 0.0027 µM.

What about the IC50 [2] of the same compound?
Its IC50 is 0.0002 to 0.015 µM.

`O=C(OC1(C2CCCC(c3cccc(F)c3)N2S(=O)(=O)c2ccc(Cl)cc2)CC1)N1CCC2(CC1)NCNC2=O` (centres unmarked) [Example 173-G] was tested. Which IC50 [2] did it give?
The IC50 was 0.0002 to 0.015 µM.

With `O=C(OC1([C@H]2CCC[C@@H](c3ccc(F)cc3F)N2S(=O)(=O)c2ccc(Cl)cc2)CC1)N1CCC(N2CCCCC2)CC1` [Example 173-I] as the compound, how does the IC50 [2] read?
Its IC50 is 0.0002 to 0.015 µM.

For `NC(=O)C1(N2CCCCC2)CCN(C(=O)OC2([C@H]3CCC[C@@H](c4cc(F)cc(F)c4)N3S(=O)(=O)c3ccc(Cl)cc3)CC2)CC1` [Example 173-J], which IC50 [1] is on record?
Its IC50 is 0.0008 µM.

And the IC50 [2]?
The IC50 was 0.0002 to 0.015 µM.

How did the IC50 [2] turn out when `O=C(OC1([C@H]2CCC[C@@H](c3cc(F)cc(F)c3)N2S(=O)(=O)c2ccc(Cl)cc2)CC1)N1CCN(C2CCCCC2)CC1` [Example 173-K] was run?
Its IC50 is 0.0002 to 0.015 µM.

Which IC50 [2] does the source give for `O=C(OC1([C@H]2CCC[C@@H](c3cc(F)cc(F)c3)N2S(=O)(=O)c2ccc(Cl)cc2)CC1)N1CCC2(CC1)C(=O)NCN2c1ccccc1` [Example 173-L] here?
Its IC50 is 0.0002 to 0.015 µM.

For `O=C(OC1([C@H]2CCC[C@@H](c3cc(F)cc(F)c3)N2S(=O)(=O)c2ccc(Cl)cc2)CC1)N1CCC(N2CCCCC2)CC1` [Example 173], which IC50 [1] is on record?
The IC50 was 0.0002 µM.

And the IC50 [2]?
Its IC50 is 0.0002 to 0.015 µM.
